BindingDB's records for doi:10.1016/S0960-894X(01)80277-8 (1994)

Test: Binding to delta opioid receptor by using [3H]DPDPE as radioligand in guinea pig brain minus cerebellum

## CC(=O)c1ccc2c3c1O[C@H]1[C@@H](O)C=C[C@H]4[C@@H](C2)N(C)CC[C@@]341 [1-[14-hydroxy-4-methyl-(1S,5R,13R,14S,17R)-12-oxa-4-azapentacyclo[9.6.1.01,13.05,17.07,18]octadeca-7(18),8,10,15-tetraen-10-yl]-1-ethanone]
  IC50: 7.9 µM

## CN1CC[C@]23c4c5ccc(-c6ccoc6)c4O[C@H]2[C@@H](O)C=C[C@H]3[C@H]1C5 [10-(3-furyl)-4-methyl-(1S,5R,13R,14S,17R)-12-oxa-4-azapentacyclo[9.6.1.01,13.05,17.07,18]octadeca-7(18),8,10,15-tetraen-14-ol]
  IC50: 7.4 µM
